Reference: patent US8877264B2, “Composition of skin external application containing ginseng berry extracts” (Amorepacific Corporation, priority 2007, dated 2014)

Key:
ceramide = experiment: epidermal lipid (total ceramide) in human skin (TLC); assay type: in vivo; conditions: 5 wt % test material, twice every day, non-treated group = 100%
Experimental: In order to evaluate the effect of the ginseng berry extract of Example 1 on an increase in lipid synthesis in human skin, 0.5 wt % of Carbopol ETD 2020, 0.45% of TEA, 5 wt % of the test material and the balance of deionized water were used. On 12 adult men and women, a region corresponding to the diameter of a polypropylene conical tube was marked on the arm, and then was applied with 20 μl of each of control groups and the ginseng berry extract of Example 1 twice every day. The subjects were divided into two groups, and the production of lipid in the applied region was analyzed in the following manner by extracting lipid at day 3 and day 11. Specifically, the arm was washed with service water, and then subjected to tape stripping once with Scotch 810 Magic tape. Then, 1 ml of a mixture of cyclohexane/ethanol (4:1) was added to the tape using a cut 50-ml polypropylene conical tube as a reservoir and stirred for about 1 minute, and then the solution was transferred into a fresh tube. Then, the tape was treated with 1 ml of a mixture of cyclohexane/ethanol (1:1) in the same manner as described above, and the solution was collected in the tube. […]
After the TLC plate was developed, the size of each band was measured at a wavelength of 570 nm using TLC scanner-II (CAMAG; densitometer).

[1] = system: C57BL/6 mouse melanocytes (Mel-Ab cells); experiment: melanin production inhibition in mouse melanocytes; assay type: cell-based; conditions: positive control, concentration not given
human skin = experiment: whitening effect on UVB-darkened human skin (colorimeter); assay type: in vivo; conditions: UVB-darkened upper arm, 10 weeks of application
5-alpha-reductase = 5-alpha-reductase activity, testosterone to dihydrotestosterone; assay type: biochemical, rat; conditions: 100 μg extract per reaction
Experimental: Adult SD (Spraque-Dawley) male rats (7-8-week old) were sacrificed with diethyl ether, the abdominal prostate was extracted, and the connective tissue was removed. The prostate tissue was finely cut in buffer (0.32 M sucrose, 0.1 mM dithiothreitol and 20 mM sodium acetate), and was then suspended with a stirrer. The suspension was centrifuged, and the supernatant was collected. 5-alpha-reductase was partially purified from the supernatant in order to the activity thereof.
A portion of the above-collected supernatant was taken and placed in buffer containing 0.2 M monobasic acid and 0.2 M dibasic acid. Then, the solution was allowed to react with a ^3H-bound substrate (testosterone), and the production of the product dihydrotestosterone was measured.
The reaction solution contained 1 mM dithiothreitol, 40 mM sodium phosphate (pH 6.5), 50 μM NADPH, [1,2,6,7-^3H] testosterone/testosterone ([…]), 0.8 mg enzyme suspension and 565 μl protein.
The ginseng berry extract of Example 1 was dissolved in 10% ethanol and added in an amount of 100 μg extract/10 μl 10% ethanol per reaction. […]
The plastic sheet was dried in air, and then a VAS system was used to measure of isotopes. Specifically, the dried plastic sheet together with an X-ray film was placed in a VAS cassette, and after 1 week, the amounts of the testosterone and dihydrotestosterone isotopes remaining on the film were measured.

[2] = system: lipogenesis in sebaceous glands; experiment: lipogenesis inhibition in hamster ear tissue (C14 uptake); assay type: cell-based; conditions: 0.01% test material solution, 6 hours, average of 4 hamsters
Experimental: The degree of lipogenesis in sebaceous glands was evaluated by evaluating the inhibition of lipogenesis through the quantification of carbon uptake required for lipogenesis.
Specifically, the ear tissue of hamsters, having abundant sebaceous glands, was biopsied, and the degree of lipogenesis was evaluated by comparatively quantifying the control group and the test materials using a radioactivity meter in C14-labeled media for 6 hours. In the test material groups, the right ear tissue of hamsters was used and 0.01% test material solutions were added to the media, and in the control group, the left ear tissue of hamsters was used and 0.01% saline was added to the media.
Meanwhile, the inhibition (%) in Table 17 was calculated according to the following equation 4 and was expressed as the average of 4 hamsters. […] [Equation 4]

Human normal fibroblasts = experiment: inhibition of oxidative DNA damage, single cell gel electrophoresis (comet assay); assay type: cell-based; conditions: H2O2 10^-3 M; test material 10 ppm
Experimental: Human normal fibroblasts were cultured for 24 hr and treated with varying concentrations of each of the ginseng berry extract of Example 1 and vitamin E. After 12 hr, the cells were treated with the positive control H2O2 (final concentration: 10^−3M), and then stained by electrophoresis. […] Herein, the image analyzer KOMET 3.1 (Kinetic Imaging, England) was used to analyze the tail length (μm) resulting from the digestion of DNA in each of 25 cells, and the analysis results are shown in Table 3 below.

## OCC(O)CO [Glycerin, glycerin]
ceramide
  production of ceramide, After 3 days of treatment: 102%
  production of ceramide, After 11 days of treatment: 94%

## Oc1ccc(O)cc1 [Hydroquinone, hydroquinone]
[1]
  Melanin production inhibition: 41.1%
Human skin
  Skin-color brightness (ΔL*): 1.90 ± 0.13

## Cc1cc2nc3c(=O)[nH]c(=O)nc-3n(C[C@H](O)[C@H](O)[C@H](O)CO)c2cc1C [Positive control group, riboflavin]
5-alpha-reductase; 37° C., 30 minutes
  Conversion: radioactivity in the DHT region/total radioactivity: 28.7%
5-alpha-reductase; vs conversion of control group
  Inhibition of 5-alpha-reductase: 32.4%

## CC1=C(/C=C/C(C)=C/C=C/C(C)=C/C(=O)O)C(C)(C)CCC1 [retinoic acid]
[2]
  Inhibition of lipogenesis: 52%

## vitamin E
Human normal fibroblasts
  Inhibition of oxidative damage to DNA: 38.9%
  Tail length: 70.6 μm
